In US4923857A, “3-Alkenyl-1-azabicyclo(3.2.0)hept-2-ene-2-carboxylic acid compounds” (Fujisawa Pharmaceutical Company, Ltd., priority 1988, dated 1990):

Test system: S. aureus 209P JC-1
Experiment: in vitro Antimicrobial Activity, two-fold agar-plate dilution method (MIC)
Format: cell-based
Details: Staphylococcus aureus, HI-agar, 37° C., 20 hours, 10^6 viable cells per ml, read-out: MIC (minimal inhibitory concentration)
Protocol: in vitro Antimicrobial Activity was determined by the two-fold agar-plate dilution method as described below.
One loopful of an overnight culture of a test strain in Trypticase-soy broth (10^6 viable cells per ml) was streaked on heart infusion agar (HI-agar) containing graded concentrations of the test compound, and the minimal inhibitory concentration (MIC) was expressed in terms of […] after incubation at 37° C. for 20 hours.

SMILES: C/C(=C\[C@@H]1CCCN1)C1=C(C(=O)O)N2C(=O)[C@H]([C@@H](C)O)[C@H]2C1 [Example 4-(1), (5R,6S)-6-[(1R)-1-hydroxyethyl]-7-oxo-3-[(E)-2-{(2S)-pyrrolidin-2-yl}-1-methylethenyl]-1-azabicyclo [3.2.0]hept-2-ene-2-carboxylic acid]
- MIC: ≤ 0.025 µg/mL
